Data published in ChEMBL document CHEMBL3431459, “Roche carnitine palmitoyltransferase modulator screening data (supplementary data associated with the publication CHEMBL2216752)”.
pIC50: −log10 of the molar value. In brackets after ≈: the same amount, converted by molar mass.

Key:
[1] = molecular target: T1, Carnitine O-palmitoyltransferase 2, mitochondrial (Rattus norvegicus, UniProt P18886); experiment: (§1) SUPPLEMENTARY: Inhibition of Carnitine palmitoyltransferase 2
T1 sequence (P18886 whole entry): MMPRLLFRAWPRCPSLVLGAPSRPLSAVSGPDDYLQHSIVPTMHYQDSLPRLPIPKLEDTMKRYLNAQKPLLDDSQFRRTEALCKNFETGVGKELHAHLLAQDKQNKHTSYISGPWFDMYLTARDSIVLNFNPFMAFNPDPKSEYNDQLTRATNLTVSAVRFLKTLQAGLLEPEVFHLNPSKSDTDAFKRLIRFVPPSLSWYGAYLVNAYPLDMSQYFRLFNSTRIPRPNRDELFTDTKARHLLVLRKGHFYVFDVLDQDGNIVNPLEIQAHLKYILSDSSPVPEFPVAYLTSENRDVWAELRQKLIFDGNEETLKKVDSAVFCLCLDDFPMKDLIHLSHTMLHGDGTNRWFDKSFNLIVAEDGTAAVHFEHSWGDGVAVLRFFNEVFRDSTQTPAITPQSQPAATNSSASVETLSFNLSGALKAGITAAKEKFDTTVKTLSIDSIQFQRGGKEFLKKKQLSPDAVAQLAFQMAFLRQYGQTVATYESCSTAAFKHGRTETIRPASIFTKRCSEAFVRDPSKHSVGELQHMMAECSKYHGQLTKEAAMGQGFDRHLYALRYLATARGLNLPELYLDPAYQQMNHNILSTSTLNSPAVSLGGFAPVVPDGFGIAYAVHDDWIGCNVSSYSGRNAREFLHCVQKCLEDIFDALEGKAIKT

[2] = molecular target: T2, Carnitine O-palmitoyltransferase 2, mitochondrial (Homo sapiens, UniProt P23786); experiment: as §1
T2 sequence (P23786 whole entry): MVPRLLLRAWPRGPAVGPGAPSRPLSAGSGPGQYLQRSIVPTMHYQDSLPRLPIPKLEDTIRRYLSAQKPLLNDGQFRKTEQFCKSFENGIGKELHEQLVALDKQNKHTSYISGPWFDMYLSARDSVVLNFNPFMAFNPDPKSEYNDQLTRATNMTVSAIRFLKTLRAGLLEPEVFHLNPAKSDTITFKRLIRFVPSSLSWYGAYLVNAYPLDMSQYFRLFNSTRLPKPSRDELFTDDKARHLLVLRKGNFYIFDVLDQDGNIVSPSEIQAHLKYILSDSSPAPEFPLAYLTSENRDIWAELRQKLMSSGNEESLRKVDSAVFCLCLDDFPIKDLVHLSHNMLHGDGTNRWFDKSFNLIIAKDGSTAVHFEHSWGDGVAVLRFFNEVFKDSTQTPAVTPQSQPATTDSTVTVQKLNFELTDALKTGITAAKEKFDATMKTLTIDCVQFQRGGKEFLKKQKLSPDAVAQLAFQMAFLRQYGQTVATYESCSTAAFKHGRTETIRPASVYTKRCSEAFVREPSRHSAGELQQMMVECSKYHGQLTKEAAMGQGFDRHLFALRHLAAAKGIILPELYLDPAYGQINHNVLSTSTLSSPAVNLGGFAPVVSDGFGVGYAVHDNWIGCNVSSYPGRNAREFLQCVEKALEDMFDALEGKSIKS

[3] = SUPPLEMENTARY: Lyophilisation Solubility Assay (LYSA); format: physicochemical; conditions: read-out: Kinetic_solubility
[4] = molecular target: T3, Carnitine O-palmitoyltransferase 1, liver isoform (Homo sapiens, UniProt P50416); experiment: (§2) SUPPLEMENTARY: Inhibition of Carnitine palmitoyltransferase 1, liver isoform
T3 sequence (P50416 whole entry): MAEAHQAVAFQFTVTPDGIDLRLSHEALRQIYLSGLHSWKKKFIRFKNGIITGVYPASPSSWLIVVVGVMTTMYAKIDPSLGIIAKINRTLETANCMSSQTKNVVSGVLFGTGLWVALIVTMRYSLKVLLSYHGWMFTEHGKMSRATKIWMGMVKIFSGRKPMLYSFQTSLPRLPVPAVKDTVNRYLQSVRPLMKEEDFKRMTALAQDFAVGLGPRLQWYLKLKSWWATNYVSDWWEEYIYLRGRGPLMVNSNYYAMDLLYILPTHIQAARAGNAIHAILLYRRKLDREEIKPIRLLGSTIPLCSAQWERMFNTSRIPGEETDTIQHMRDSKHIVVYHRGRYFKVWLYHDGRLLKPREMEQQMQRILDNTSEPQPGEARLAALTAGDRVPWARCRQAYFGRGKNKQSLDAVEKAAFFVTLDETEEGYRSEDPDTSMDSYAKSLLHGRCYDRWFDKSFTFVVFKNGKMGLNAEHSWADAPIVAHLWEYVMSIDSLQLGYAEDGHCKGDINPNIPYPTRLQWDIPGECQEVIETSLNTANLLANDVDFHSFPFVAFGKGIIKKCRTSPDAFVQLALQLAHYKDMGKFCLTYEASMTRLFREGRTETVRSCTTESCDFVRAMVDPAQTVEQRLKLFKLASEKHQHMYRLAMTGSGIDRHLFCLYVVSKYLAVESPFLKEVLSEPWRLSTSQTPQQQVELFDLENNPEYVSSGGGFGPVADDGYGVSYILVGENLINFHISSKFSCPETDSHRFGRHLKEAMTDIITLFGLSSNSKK

[5] = molecular target: T4, Carnitine O-palmitoyltransferase 1, liver isoform (Rattus norvegicus, UniProt P32198); experiment: as §2
T4 sequence (P32198 whole entry): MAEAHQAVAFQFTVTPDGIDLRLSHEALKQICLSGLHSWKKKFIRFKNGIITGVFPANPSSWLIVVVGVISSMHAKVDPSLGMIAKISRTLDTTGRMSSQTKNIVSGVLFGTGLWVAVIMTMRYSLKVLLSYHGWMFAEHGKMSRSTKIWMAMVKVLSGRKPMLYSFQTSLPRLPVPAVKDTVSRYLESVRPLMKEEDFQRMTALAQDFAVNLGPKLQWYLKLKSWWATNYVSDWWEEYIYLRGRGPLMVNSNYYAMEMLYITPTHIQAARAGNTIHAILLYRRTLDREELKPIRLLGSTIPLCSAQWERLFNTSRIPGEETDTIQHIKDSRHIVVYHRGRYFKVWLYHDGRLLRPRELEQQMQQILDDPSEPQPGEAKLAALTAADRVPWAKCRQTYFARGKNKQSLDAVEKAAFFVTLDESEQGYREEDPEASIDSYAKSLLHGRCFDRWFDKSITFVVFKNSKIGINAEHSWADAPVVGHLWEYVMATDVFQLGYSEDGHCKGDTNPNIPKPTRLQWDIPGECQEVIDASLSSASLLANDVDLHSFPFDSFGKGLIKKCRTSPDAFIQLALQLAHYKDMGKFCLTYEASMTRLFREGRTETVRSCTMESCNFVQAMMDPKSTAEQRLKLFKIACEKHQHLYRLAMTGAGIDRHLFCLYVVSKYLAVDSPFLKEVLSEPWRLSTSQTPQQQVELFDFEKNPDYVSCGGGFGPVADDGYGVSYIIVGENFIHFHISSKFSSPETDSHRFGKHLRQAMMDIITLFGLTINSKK

[6] = SUPPLEMENTARY: PAMPA permeability assay; format: physicochemical; conditions: read-out: Permeability
[7] = molecular target: T5, Carnitine O-palmitoyltransferase 1, muscle isoform (Homo sapiens, UniProt Q92523); experiment: SUPPLEMENTARY: Inhibition of Carnitine palmitoyltransferase 1, muscle isoform; parameters: species or system Muscle tissue
T5 sequence (Q92523 whole entry): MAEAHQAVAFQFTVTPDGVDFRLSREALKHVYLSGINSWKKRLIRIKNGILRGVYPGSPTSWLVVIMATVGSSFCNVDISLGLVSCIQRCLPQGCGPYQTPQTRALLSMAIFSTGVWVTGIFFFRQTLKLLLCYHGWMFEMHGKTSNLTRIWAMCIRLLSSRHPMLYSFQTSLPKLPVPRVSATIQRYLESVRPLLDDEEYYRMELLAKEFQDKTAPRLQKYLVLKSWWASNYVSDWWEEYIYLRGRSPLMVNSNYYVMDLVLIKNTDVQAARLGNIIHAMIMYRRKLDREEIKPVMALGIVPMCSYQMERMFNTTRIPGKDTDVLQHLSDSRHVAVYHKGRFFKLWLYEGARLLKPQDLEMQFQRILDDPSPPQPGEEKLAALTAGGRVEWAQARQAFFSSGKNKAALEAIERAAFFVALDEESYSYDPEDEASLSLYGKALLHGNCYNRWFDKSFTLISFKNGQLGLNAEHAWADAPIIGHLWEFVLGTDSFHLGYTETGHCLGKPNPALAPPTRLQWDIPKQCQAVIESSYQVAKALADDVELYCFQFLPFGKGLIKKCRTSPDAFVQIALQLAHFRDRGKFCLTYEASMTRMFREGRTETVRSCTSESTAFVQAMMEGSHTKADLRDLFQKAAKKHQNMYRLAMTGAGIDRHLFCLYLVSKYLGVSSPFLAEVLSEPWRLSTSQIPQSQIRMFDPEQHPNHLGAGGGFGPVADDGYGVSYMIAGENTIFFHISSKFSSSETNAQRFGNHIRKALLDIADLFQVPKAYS

Row | SMILES | pIC50 [1] | pIC50 [2] | solubility kinetic [3] [µg/mL] | pIC50 [4] | pIC50 [5] | Papp [6] [×10⁻⁶ cm/s] | pIC50 [7]
1 | CCn1cc(Sc2cc(Cl)ccc2OC)c2cc(C(=O)Nc3ccc(C(=O)O)cc3)ccc21 | < 4.00 | < 4.00 | 4 (≈ 8.32 µM) | 6.77 | 6.33 | 0.71 | < 4.00
2 | CCn1cc(S(=O)(=O)c2cc(Cl)ccc2OC)c2cc(C(=O)Nc3ccc(C(=O)O)cc3)ccc21 | 5.73 | 6.27 | 15 (≈ 29.2 µM) | 7.13 | 7.27 | 0.67 | 5.71
3 | COc1ccc(Cl)cc1S(=O)(=O)N1COc2c(F)cc(C(=O)Nc3ccc(CC(=O)O)cc3)cc21 | < 4.00 | < 4.00 | 38 (≈ 72.9 µM) | 6.81 | 6.88 | 2.84 | 6.21
4 | COc1ccc(Cl)cc1S(=O)(=O)N1COc2c(F)cc(C(=O)Nc3nc(CC(=O)O)cs3)cc21 | < 4.00 | < 4.00 | 309 (≈ 585 µM) | 7.51 | 7.28 | 2.24 | 6.26
5 | COc1ccc(Cl)cc1CN1C(=O)COc2ccc(C(=O)Nc3nc(CC(=O)O)cs3)cc21 | < 4.00 | < 4.00 | 34 (≈ 69.7 µM) | 6.85 | 7.07 | 1.13 | 4.49
6 | COc1ccc(C)cc1S(=O)(=O)n1ccc2ccc(C(=O)Nc3ccc(C(=O)O)cc3)cc21 | 5.57 | 5.97 | < 1 | 7.53 | 7.92 | 1.23 | 5.58
7 | Cn1cc(Sc2cccc(Cl)c2)c2cc(C(=O)Nc3ccc(C(=O)O)cc3)ccc21 | 5.13 | 5.29 | 7 (≈ 16 µM) | 7.36 | 7.67 | 0.13 | 5.95
8 | COc1ccc(Cl)cc1S(=O)(=O)N1CCOc2ccc(C(=O)Nc3ccc(CCC(=O)O)cc3)cc21 | < 4.00 | < 4.00 | 4 (≈ 7.53 µM) | 6.76 | 6.98 | 3.3 | 6.03
9 | Nc1cccc(-c2nc([C@H]3CCCCN3C(=O)COc3ccccc3)no2)n1 | < 4.00 | 4.50 | 25 (≈ 65.9 µM) | 6.95 | 6.59 | 5.45 | < 4.00
10 | COc1ccc(Cl)cc1CN1C(=O)OC(C)(C)c2ccc(C(=O)Nc3ccc(C(=O)O)c(Cl)c3)cc21 | 4.62 | 5.39 | 30 (≈ 56.7 µM) | 6.61 | 7.29 | 1.1 | 5.91
11 | COc1ccc(Cl)cc1S(=O)(=O)N1COc2c(Cl)cc(C(=O)Nc3ccc(C(=O)O)cc3)cc21 | 4.17 | 4.47 | 4 (≈ 7.64 µM) | 7.36 | 7.46 | 3.92 | < 4.00
12 | COc1ccc(Cl)cc1S(=O)(=O)N1CCOc2c1cc(C(=O)Nc1ccc(C(=O)O)cc1)cc2C(F)(F)F | 5.28 | 5.64 | 103 (≈ 180 µM) | 7.11 | 6.81 | 2.65 | < 4.00
